Reference: patent publication US20220031738A1, “IRON FORMULATIONS FOR TOPICAL ADMINISTRATION AND METHODS OF TREATMENT OF IRON DEFICIENCY” (DYVE BIOSCIENCES, INC., priority 2018, published 2022)

How the values were obtained:
Assay type in all cases: in vivo
[1] = tested on: Anemic human patients with progressive renal insufficiency; assay: Topical vs oral vs intravenous iron supplementation in anemic patients with progressive renal insufficiency treated with erythropoietin
Method: In this experiment, iron (in the form of ferrous sulfate) in formulations of the invention was tested for its ability to treat anemia in patients with progressive renal insufficiency, and compared to orally or intravenously delivered iron supplementation.
In vivo tests were performed as follows: Anemic human patients with progressive renal insufficiency were treated with either topical, oral or intravenous iron supplementation and evaluated at baseline, 3 months and 6 months. Trial design was built to assess these primary outcomes: hemoglobin response, serum ferritin levels, changes in red cell hypochromasia, and incidence of adverse events. Treatment groups randomized as follows: • Oral iron supplement group (ferrous sulphate 200 mg tds) • Intravenous iron supplement group (300 mg iron sucrose monthly) • Topical iron supplement group (3.34 g of topical formulation applied tds) Formulations detailed below in Table 1 • In all groups Erythropoietin (rHuEpo) treatment was simultaneously commenced.

[2] = tested on: human iron-depleted, nonanemic women; assay: Topical vs oral iron to improve endurance after training in iron-depleted, nonanemic women; settings: oral = ferrous sulfate 100 mg per day
Method: In this experiment, iron (in the form of ferrous sulfate) in formulations of the invention was tested for its ability to help improve endurance after training in iron-depleted, nonanemic women and compared to orally delivered iron supplementation.
In vivo tests were performed as follows: human iron-depleted (serum ferritin <16 μg/l), nonanemic (Hb >12 g/dl) women (18-33 yr old) were treated with either topical or oral iron supplementation for 6 weeks. Subjects trained for 30 min/day, 5 days/wk at 75-85% of maximum heart rate for the final 4 wk of the study. Trial design was built to assess this primary outcome: change in 15 km time from baseline to […]. Treatment groups randomized as follows: • a. Control group: oral placebo • b. Oral iron supplement group (100 mg of ferrous sulfate per day) • c. Topical iron supplement group (1.67 g of topical formulation applied daily) Formulations detailed in Table 6 below

[3] = tested on: human IBD patients with anemia; assay: Topical vs oral vs intravenous iron for anemia in inflammatory bowel disease
Method: In this experiment, iron (in the form of ferrous sulfate) in formulations of the invention was tested for its ability to help treat anemia in inflammatory bowel disease (IBD) patients and compared to orally or intravenously delivered iron supplementation.
In vivo tests were performed as follows: human IBD patients with anemia were treated with either topical, oral or intravenous iron supplementation for 12 weeks. Trial design was built to assess this primary outcome: change in hemoglobin (Hb) from baseline to week 12. Treatment groups randomized as follows: • a. Oral iron supplement group (FeSulf containing 100 mg ferrous iron (II). Patients received one capsule b.i.d. for 12 wk) • b. Intravenous iron supplement group (ferric carboxymaltose (FeCarb) 50 mg ferric iron (III) per milliliter in water with individual patient dosage calculated according to the formula of Ganzoni) • c. Topical iron supplement group (1.67 g of topical formulation applied b.i.d.) Formulations detailed in Table 5 below

[4] = tested on: Anemic human patients with progressive renal insufficiency; assay: Topical vs oral vs intravenous iron for iron deficiency in non-hemodialysis-dependent patients with chronic kidney disease; settings: oral = ferrous sulphate 325 mg thrice daily; intravenous ferric carboxymaltose; topical = 5.42 g Table 2 formulation tds
Method: In this experiment, iron (in the form of ferrous sulfate) in formulations of the invention was tested for its ability to treat iron deficiency in non-hemodialysis dependent patients with chronic kidney disease, and compared to orally or intravenously delivered iron supplementation.
In vivo tests were performed as follows: Anemic human patients with progressive renal insufficiency were treated with either topical, oral or intravenous iron supplementation. Trial design was built to assess these primary outcomes: hemoglobin response, and incidence of adverse events. Treatment groups randomized as follows: • a. Oral iron supplement group (ferrous sulphate 325 mg thrice daily for a total of 195 mg elemental iron daily) • b. Intravenous iron supplement group (intravenous ferric carboxymaltose 1000 mg over 15 min (with up to two additional doses of 500 mg at 2-week intervals)) • c. Topical iron supplement group (5.42 g of topical formulation applied tds) Formulations detailed in Table 2 below.

[5] = tested on: human patients with chemotherapy-related anemia; assay: Topical vs oral vs intravenous iron in anemic cancer patients receiving darbepoetin alfa; settings: 8 weeks, with darbepoetin alfa 500 mcg every 3 weeks; oral = sucrosomial iron 30 mg daily; IV = ferric gluconate 125 mg weekly; topical = 0.50 g Table 4 formulation daily
Method: In this experiment, iron (in the form of ferrous sulfate) in formulations of the invention was tested for its ability to help treat chemotherapy-induced anemia in cancer patients when combined with erythropoiesis-stimulating agents (ESAs), and compared to orally or intravenously delivered iron supplementation. […] Trial design was built to assess this primary outcome: Hb response as defined as the Hb increase ≥2 g/dL from baseline or the attainment Hb ≥12 g/dL. Treatment groups randomized as follows: • a. Oral iron supplement group (sucrosomial iron 30 mg daily) • b. […] Topical iron supplement group (0.50 g of topical formulation applied daily) Formulations detailed in Table 4 below

[6] = tested on: Anemic pregnant human patients; assay: Topical vs oral vs intravenous iron for anemia in pregnancy
Method: In this experiment, iron (in the form of ferrous sulfate) in formulations of the invention was tested for its ability to treat anemia in pregnant patients, and compared to orally or intravenously delivered iron supplementation.
In vivo tests were performed as follows: Anemic pregnant human patients were treated with either topical, oral or intravenous iron supplementation during 14 to 34 weeks of pregnancy. Trial design was built to assess these primary outcomes: haemoglobin and serum ferritin levels. Treatment groups randomized as follows: • a. Oral iron supplement group (200 mg of ferrous fumarate per day) • b. Intravenous iron supplement group (200 mg of iron sucrose was administered in 100 ml 0.9% sodium chloride per day) • c. Topical iron supplement group (3.34 g of topical formulation applied per day) Formulations detailed in Table 3 below

`O=S(=O)([O-])[O-].[Fe+2]` [ferrous sulphate] was tested, and the “allergic reactions reported, share of patients” value ([1]; oral = ferrous sulphate, intravenous = iron sucrose, transdermal = Table 1 formulation) was “none”, the “decrease in 15-km time vs the placebo control group” value ([2]; topical = 1.67 g Table 6 formulation daily) was “statistically significantly greater” and the “decrease in 15-km time, oral versus transdermal” value ([2]; transdermal = 1.67 g Table 6 formulation daily) was “no statistical difference”.

With ferric carboxymaltose the “median Hb after treatment (week 12)” value ([3]; 12 weeks, same arms as E16) was 12.3 g/dL, the “median Hb at baseline” value ([3]; before treatment, oral = FeSulf 100 mg ferrous iron b.i.d., IV = ferric carboxymaltose (Ganzoni dose), topical = 1.67 g Table 5 formulation b.i.d.) was 8.7 g/dL and the treatment-related adverse events [4] was 2.7%.

For ferric gluconate, the “patients achieving an erythropoietic (Hb) response: Hb increase ≥2 g/dL from baseline or Hb ≥12 g/dL” value [5] was “Seventy one”.

In the case of `O=C([O-])/C=C/C(=O)[O-].[Fe+2]` [ferrous fumarate], the “participants with an improvement in hemoglobin more than 20 g/L” value ([6]; same arms as E9) is reported as 11%.

For iron sucrose, the “serum ferritin levels versus oral” value ([1]; comparator oral ferrous sulphate 200 mg tds, intravenous = iron sucrose 300 mg monthly, topical = 3.34 g Table 1 formulation tds) was “statistical significantly higher”, the “allergic reactions reported, share of patients” value ([1]; human, in vivo) was 10% and the “serum ferritin levels, topical versus intravenous” value ([1]; intravenous = iron sucrose 300 mg monthly, topical = 3.34 g Table 1 formulation tds) was “not statistically different”. For the same compound, the change in hemoglobin ([6]; pregnant women, 14 to 34 weeks of pregnancy, oral = ferrous fumarate 200 mg per day, intravenous = iron sucrose 200 mg per day, topical = 3.34 g Table 3 formulation per day) was 22 ± 11.5 g/L and the “patients with increase in ferritin level between 51 to 100 ng/ml” value ([6]; same arms as E9) was 48%.
